Consider 8 compounds from patent publication US20080293699A1, “Inhibitors of thapsigargin-induced cell death” (priority 2007, published 2008).

As a reminder, the IC50 is the concentration that gives 50% inhibition.

“Also recorded” adds a separate entry of the source. Where two headings read alike, the source gives them in different places. Bounds are passed on as bounds.

The test system of one assay is CSM14.1 cells. Nature of the assay: Primary HTS assay: ATP content (ATPlite) of undifferentiated CSM14.1 cells challenged with thapsigargin. The settings on record: for IC50: thapsigargin-induced death of undifferentiated CSM14.1, ATP content. Format: cell-based, rat. An excerpt: For convenience, and because transient reductions in temperature that might be associated with large screening experiments could restore Large T activity, we elected to develop our HTS using undifferentiated CSM14.1 cells, with the plan to then confirm hits using differentiated cells. For monitoring cell death, we used a commercially available bioluminescence reagent that determines intracellular ATP content, without requirement for complicated cell processing steps (ATPlite, Perkin Elmer). Thus, ATP was used as a surrogate indicator of cell survival for the primary assay.
Undifferentiated or differentiated CSM14.1 cells were plated at a density of 3,000 cells/well in 40 μL DMEM medium (containing 10% serum, 1 mM L-glutamine, and antibiotics) in 96 well flat-bottom microtiter plates composed of polystrene (Greiner Bio One, polystyrene, white wall, flat bottom, lumitrac, high binding). After overnight incubation at 32° C., DMSO (0.5% v/v) or 100 uM Salubrinal (Sal) in DMSO was delivered. After 2 hrs, 5 uL of a stock solution of 150 uM TG in DMEM medium containing 0.75% (v:v) DMSO to achieve a final concentration of approximately 15 uM. After culturing for 24 hrs, cellular ATP content was measured by addition of 20 uL per well of ATPlite solution (Perkin-Elmer), and then the plates were incubated for three minutes at room temperature, before reading with a Microplate Luminometer (BD Pharmingen Moonlight model 3096).
To determine the reproducibility of the ATP content assay, we prepared a 96-well plate in which half the wells received TG plus DMSO (assay minimum) and half received TG plus Salubrinal (assay maximum), then performed the ATP content studies using undifferentiated CSM14.1 cells (FIG. 6). CSM14.1 cells were cultured overnight at 3,000 cells per well in 96-well flat-bottom plates, then either DMSO (0.5% final concentration) or Salubrinal (100 μM) in DMSO (0.5% final concentration) was added to half the well (48 each). After two hrs, TG was added to all wells (15 μM final). Cells were cultured for 24 hrs, then the ATP content was measured using the ATPlite luminogenic assay. We then adapted this assay to the high-throughput environment, using a Biomex™ FX liquid handler for automated dispensing of assay components into microwells of 96-well plates. First, undifferentiated CSM14.1 cells were grown at 32° C. in DMEM medium supplemented with 10% fetal bovine serum (FBS), 1% penicillin/streptomycin, and 1% L-glutamine in 150 mm×25 mm polystyrene culture dishes to produce approximately 3×10^6 cells. Second, CSM14.1 cells were recovered from cultures by trypsinization when at 80-90% confluence, and suspended at 7.5×10^4 cells/mL in DMEM medium containing 2% FBS, 1 mM L-glutamine, and antibiotics 100 IU penicillin 100 μg/ml streptomycin. Third, the cell suspension was then delivered at 40 μL per well of 96-well plastic microtiter plates (Greiner Bio One, polystyrene, white wall, flat bottom, lumitrac, high binding, cat #655074), and the plates were cultured overnight at 32° C. in a humidified atmosphere in 95% air: 5% CO2. Fourth, using the automated liquid handler, 5 μL of test compounds in 10% DMSO were added to wells in columns 2-11 of the 96-well plates (leaving columns 1 and 12 intact) to achieve an approximate final concentration of 15 μg/mL test compound and a final concentration of 1% DMSO. Fifth, 5 μL of 1 mM Salubrinal in a solution of 10% DMSO:90% DMEM was added to wells of column 1/rows A-D of each plate, while 5 μL of 10% DMSO:90% DMEM solution was added to wells corresponding to column 1/rows E-H and to all wells in column 12. Sixth, the plates were returned to culture.

In another assay the test system is phospho-c-Jun. Nature of the assay: Immunoblotting of thapsigargin-induced c-Jun phosphorylation in CSM14.1 cells. Format: cell-based, rat. The settings on record: immunoblotting with phospho-specific antibody, 10 μM, 25 μM hits. An excerpt:
After confirming the pathway selectivity of compounds, additional downstream assays can be performed to map the specific signal transduction pathway inhibited by the compounds. In this regard, various antibody reagents are commercially available for assessing the status of the three major pathways known to be activated by ER stress: (1) PERK, (2) Ire1, and (3) ATF6 (Xu et al., J. Clinical Invest., 115:2656-2664, 2005). Immunoblotting experiments can be performed to assess the expression or phosphorylation (using phospho-specific antibodies) of marker proteins in these pathways. […] CSM 14.1 cells were cultured with DMSO or with 25 μM of hit compounds for two hours, followed by treatment of thapsigargin (15 μM). Cell lysates were prepared and analyzed by SDS-PAGE/immunoblotting using antibodies specific for phospho-c-Jun, phospho-eIF2α, phospho-p38 MAPK, and tubulin (a loading control). CSM14.1 cells were cultured with either DMSO or one of the active compounds at 1, 5, and 10 μM, followed two hours later by 15 μM TG. After two hrs, cell lysates were prepared, normalized for protein content, and either analyzed by SDS-PAGE/immunoblotting using anti-p38-MAPK pan-reactive antibody or phospho-specific antibody with ECL-based detection, followed by densitometry analysis of x-ray films, normalizing phosphor-p38 MAPK relative to total p38 MAPK, or analyzed using a meso-scale instrument from MSD and a procedure in which total p38 MAPK is captured on plates, and the relative amounts of phosphorylated protein were determined using phospho-specific antibody (MSD catalog #K15112D1). […] Suppression of p38 MAPK and c-Jun phosphorylation was dose-dependent, and could not be explained by a decline in total levels of these proteins. […] Proteolytic processing of ATF6 was also not inhibited by our hit compounds. […] Screens of other libraries (such as the NIH compound collection) may yield cytoprotective compounds with different mechanisms.
1) CSM14.1 cells were plated at a density of 2×10^5 cells/well at 6 well dish (Greiner Bio one) in DMEM containing 2% FBS and antibiotics.
2) After overnight incubation, cells were treated by DMSO (0.5%) or compounds (25 μM) for two hours, followed by TG (15 uM) treatment.
3) After two hours, cells were lyzed in 250 uL of lysis buffer and subjected to protein concentration decision, and to SDS PAGE/Western blotting using antibodies specific for phospho p38 MAPK (Cell signaling 9211), p38 MAPK (Santa Cruz-C20), phospho c-Jun (Cell signaling 9164), c-Jun (Santa Cruz-SC 1694), phospho eIF2α (Cell signaling 3597) and α-tubulin.
CSM 14.1 cells were cultured with DMSO or with 25 μM of hit compounds for two hours followed by treatment with thapsigargin (15 μM). Cell lysates were prepared and analyzed by SDS-PAGE/immunoblotting using antibodies specific for: c-Jun, phosphor-c-Jun (ser 73), eIF2a, phosphor-eIF2a (ser 51), p38 MAPK, phosphor-p38 MAPK (Thr180/Tyr182), ATF-6, CHOP and tubulin (loading control). ER stress-induced activation of C-Jun and p38 MAPK is suppressed by the 11 hit compounds.
CSM cells were treated with two compounds at increasing doses. Pre-incubation time, thapsigargin treatment, cell extract preparation and immunoblotting protocols were as described previously.
On the technique in general: A western blot detects proteins with antibodies after separation by electrophoresis.

Assay [1] has as its system ASK1 (ser 967, ser 83, thr 845). Nature of the assay: Phosphorylation of ASK1 sites in ASK1-transfected 293T cells (immunoblotting). Format: cell-based. The settings on record: ASK1-transfected 293T; for Phosphorylation of ASK1 at ser 967: 100 μM compound, two hours; for Phosphorylation of ASK1 at ser 83 and thr 845: up to 100 μM. As for the experimental part:
Phosphorylation of ASK1 at various sites was inspected. 293T cells were transfected with pcDNA-ASK1-HA. One day later, cells were incubated with DMSO (0.4%) or 100 μM compound 6239507 (#1) for two hours. Cell extracts were prepared using lysis buffer and were subjected to immunoblotting using anti-phospho ASK1 antibodies or anti HA antibody as indicated (A). The relative density of each phosphorylated ASK band was calculated by imageJ software (B). In (C), compounds from (A) were compared in activity against thapsigargin-induced cell death. […] (D) 293T cells were transfected with pcDNA-ASK1-HA and pEBG-GST-14-3-3. One day later cells were incubated with DMSO (0.4%) or 100 μM of the indicated compound for two hours. Then cells were treated with thapsigargin (20 μM) for the indicated time. Cell extracts were prepared using lysis buffer, and 14-3-3 proteins were immunoprecipitated with […] sepharose beads. ASK1 protein binding with 14-3-3 was visualized by immunoblotting using anti-HA antibody. Anti-phospho ASK1 (ser967) antibody was used to detect phosphorylation of ASK1 at each time point.
Thus, while not directly inhibiting ASK1 kinase activity, these events are predicted to reduce ASK1 in vivo kinase activity. It is possible that compound 5962123 inhibits a protein phosphatase that regulates phosphorylation of Ser967.
Suppression of thapsigargin-induced phosphorylation of p38MAPK was also measured by a quantitative ELISA-methods, with IC50 for p38MAPK phosphorylation estimated at <5 μM. In contrast, thapsigargin-induced expression of CHOP, expression of ATF4, proteolytic processing of ATF6, phosphorylation of eIF2a (Ser 51), auto-phosphorylation of Ire1a or auto-phosphorylation of ASK1 were not inhibited directly by CID-2878746 at concentrations up to 50 μM tested by in vitro kinase assay using p32-γ-ATP substrate. […] Thapsigargin-induced reductions in phosphorylation of ASK1 at the serine 967 site in ASK1 transfected 293T cells are inhibited by compound 5962123 at concentrations of 50-100 μM, as determined by immunoblotting using anti-phospho-specific (ser 967) antibody, but thapsigargin-induced changes in phosphorylation of ASK1 at ser 83 and thr 845 are not modulated by compound 5962123 at concentrations as high as 100 μM in ASK1-transfected HEK293T cells.
Experiments were also performed to determine whether compound 6239507 enhances phosphorylation of ASK1 at Ser 967 before and after ER stress induction (i.e., thapsigargin treatment). 293T cells were transfected with pcDNA-ASK1-HA. One day later, cells were incubated with DMSO (0.4%) or 100 μM compound 6239507 (#1) for two hours. Then cells were treated with thapsigargin (20 μM) for the indicated times. Cell extracts were prepared by lysis buffer and were subjected to immunoblotting with anti-phospho ASK1 Ser967 antibody or anti HA antibody. The relative density of phosphor ser967 bands were calculated by imageJ software (mean ±SD).
The ser 967 site of ASK1 is known to down-regulate ASK1 activity by phosphorylation (Goldman et al., J. Biol. Chem. 279:10442-10449, 2004) via 14-3-3 binding. […] 293T cells were transfected with pcDNA-ASK1-HA. One day later, cells were incubated with DMSO (0.4%) or 100 μM compound 6239507 (#1) for two hours. Cell extracts were prepared using lysis buffer and were subjected to immunoblotting using anti-phospho ASK1 antibodies or anti HA antibody as indicated. The relative density of each phosphorylated ASK band was calculated by imageJ software. The compounds were compared in activity against thapsigargin-induced cell death. 293T cells were transfected with pcDNA-ASK1-HA and pEBG-GST-14-3-3. One day later cells were incubated with DMSO (0.4%) or 100 μM of the indicated compound for two hours. Then cells were treated with thapsigargin (20 μM) for the indicated time. Cell extracts were prepared using lysis buffer, and 14-3-3 proteins were immunoprecipitated with […] sepharose beads. […]

[2] abbreviates: one value given, read-out: IC50.
[3] abbreviates: first assay, read-out: IC50 (μM), first value.
Where [4] appears, read: second assay (value in bold), read-out: IC50 (μM), value from a second assay.
The mark [5] stands for this setting: Rattus norvegicus, one value given, read-out: IC50.

For the compound `COc1ccc(C2CC(=O)C3=C(C2)Nc2ccccc2NC3c2cccc(O)c2)cc1` (stereo not drawn) [Compound 6048163], in the assay on CSM14.1 cells (cell death assay used for primary screening), the “Activity against thapsigargin-induced cell death / cell protection” value is “inactive in cell protection; also recorded: not potent as an inhibitor of cell death”. In addition, the IC50 with CSM14.1 cells (setting [2]) is over 200 µM. In the assay with phospho-c-Jun, the “Thapsigargin-induced phosphorylation of c-Jun” value is “fail to suppress”.
For the compound `CCOc1cc(C2Nc3ccccc3NC3=C2C(=O)CC(c2ccc(OC)cc2)C3)cc(Cl)c1O` (stereo not drawn) [Compound 6049448], the figures for the IC50 in the assay with CSM14.1 cells (setting [3]), with CSM14.1 cells (setting [2]) and with CSM14.1 cells (setting [4]) were 24.8 ± 2.03 µM, 23.7 ± 0.642 µM and 23.7 ± 0.642 µM, respectively. Further, the “Phosphorylation of ASK1 at ser 967” value in assay [1] is given as “enhanced phosphorylation of ser 967 only”. For the same compound, the “Phosphorylation of ASK1 at ser 83 and thr 845” value in assay [1] is given as “not ser 83 or thr 845”.
On to `COc1ccc(C2CC(=O)C3=C(C2)Nc2ccccc2NC3c2cc(C)ccc2C)cc1` (stereo not drawn) [Compound 6238767], for which the IC50 with CSM14.1 cells (setting [3]) came out at 13.3 ± 1.17 µM; in the assay on CSM14.1 cells (setting [2]), 12.5 ± 0.177 µM; in the assay on CSM14.1 cells (setting [4]), 12.5 ± 0.177 µM. Moreover, the “Phosphorylation of ASK1 at ser 967” value in assay [1] is “enhanced phosphorylation of ser 967 only”. Further, the “Phosphorylation of ASK1 at ser 83 and thr 845” value in assay [1] is listed as “not ser 83 or thr 845”.
As to `COc1ccc(C2CC(=O)C3=C(C2)Nc2ccccc2NC3c2ccc(-c3ccccc3)cc2)cc1OC` (stereo not drawn) [Compound 6239945, 11-(4-biphenylyl)-3-(3,4-dimethoxyphenyl)-2,3,4,5,10,11-hexahydro-1H-dibenzo[b,e][1,4]diazepin-1-one], the IC50 with CSM14.1 cells (setting [5]) stood at 21.8 ± 2.97 µM.
For the compound `COc1ccc(C2CC(=O)C3=C(C2)Nc2ccccc2NC3c2ccccc2[N+](=O)[O-])cc1OC` (stereo not drawn) [Compound 6240043], in the assay on CSM14.1 cells (setting [2]), the half-maximal inhibitory concentration (IC50) came out at 39.6 ± 1.99 µM.
Same read-out and setting: the value for `COc1ccc(C2CC(=O)C3=C(C2)Nc2ccccc2NC3c2c(F)cccc2F)cc1` (stereo not drawn) [Compound 6241186] was 25 ± 0.175 µM.
Same read-out and setting: the figure for `O=C1CC(c2ccccc2)CC2=C1C(c1cccc3ccccc13)Nc1ccccc1N2` (stereo not drawn) [Compound 6366991] is 22.2 ± 2.8 µM.
As for `COc1ccc(C2CC(=O)C3=C(C2)Nc2ccccc2NC3c2ccccc2C)cc1OC` (stereo not drawn) [Compound 6369841, 3-(3,4-dimethoxyphenyl)-11-(2-methylphenyl)-2,3,4,5,10,11-hexahydro-1H-dibenzo[b,e][1,4]diazepin-1-one], the IC50 with CSM14.1 cells (setting [5]) turned out to be 36.5 ± 2.19 µM.
